Columns and labels:
[1] = system: Phosphatidylinositol 4,5-bisphosphate 3-kinase catalytic subunit alpha isoform (Homo sapiens), P42336 [E545K]; settings: Compound concentration 1000.0 nM
[2] = molecular target: 3-phosphoinositide-dependent protein kinase 1 (Homo sapiens) (UniProt O15530); settings: Compound concentration 1000.0 nM
[3] = molecular target: Interferon-induced, double-stranded RNA-activated protein kinase (Homo sapiens) (UniProt P19525); settings: Compound concentration 1000.0 nM
[4] = molecular target: 5-hydroxytryptamine receptor 2B (Homo sapiens, UniProt P41595); settings: Compound concentration 10.0 uM
[5] = molecular target: Tyrosine-protein kinase JAK1 (Homo sapiens) (UniProt P23458); settings: Compound concentration 1000.0 nM
[6] = molecular target: Mitogen-activated protein kinase kinase kinase 13 (Homo sapiens) (UniProt O43283); settings: Compound concentration 1000.0 nM
[7] = molecular target: Serine/threonine-protein kinase 33 (Homo sapiens) (UniProt Q9BYT3); settings: Compound concentration 1000.0 nM
[8] = molecular target: Serine/threonine-protein kinase PLK1 (Homo sapiens) (UniProt P53350); settings: Compound concentration 1000.0 nM
[9] = molecular target: Serine/threonine-protein kinase 3 (Homo sapiens) (UniProt Q13188); settings: Compound concentration 1000.0 nM
[10] = molecular target: Serine/threonine-protein kinase Chk2 (Homo sapiens) (UniProt O96017); settings: Compound concentration 1000.0 nM
[11] = molecular target: Mitogen-activated protein kinase kinase kinase 14 (Homo sapiens) (UniProt Q99558); settings: Compound concentration 1000.0 nM
[12] = molecular target: Atypical kinase COQ8B, mitochondrial (Homo sapiens) (UniProt Q96D53); settings: Compound concentration 1000.0 nM
[13] = molecular target: Mitogen-activated protein kinase 14 (Homo sapiens) (UniProt Q16539); settings: Compound concentration 1000.0 nM
[14] = system: Receptor-type tyrosine-protein kinase FLT3 (Homo sapiens), P36888 [UNDEFINED MUTATION]; settings: Compound concentration 1000.0 nM
[15] = molecular target: Delta-type opioid receptor (Homo sapiens) (UniProt P41143); settings: Compound concentration 10.0 uM
[16] = system: Epidermal growth factor receptor (Homo sapiens), P00533 [UNDEFINED MUTATION]; settings: Compound concentration 1000.0 nM
[17] = molecular target: Mitogen-activated protein kinase kinase kinase 12 (Homo sapiens) (UniProt Q12852); settings: Compound concentration 1000.0 nM
[18] = molecular target: Serine/threonine-protein kinase Nek5 (Homo sapiens) (UniProt Q6P3R8); settings: Compound concentration 1000.0 nM
[19] = molecular target: 5'-AMP-activated protein kinase catalytic subunit alpha-2 (Homo sapiens) (UniProt P54646); settings: Compound concentration 1000.0 nM
[20] = molecular target: Serine/threonine-protein kinase DCLK2 (Homo sapiens) (UniProt Q8N568); settings: Compound concentration 1000.0 nM
[21] = molecular target: cAMP-dependent protein kinase catalytic subunit beta (Homo sapiens) (UniProt P22694); settings: Compound concentration 1000.0 nM
[22] = molecular target: Serine/threonine-protein kinase PAK 6 (Homo sapiens) (UniProt Q9NQU5); settings: Compound concentration 1000.0 nM
[23] = molecular target: Serine/threonine-protein kinase WNK2 (Homo sapiens) (UniProt Q9Y3S1); settings: Compound concentration 1000.0 nM
[24] = molecular target: Serine/threonine-protein kinase Nek7 (Homo sapiens) (UniProt Q8TDX7); settings: Compound concentration 1000.0 nM
[25] = molecular target: Sigma non-opioid intracellular receptor 1 (Homo sapiens, UniProt Q99720); settings: Compound concentration 10.0 uM
[26] = molecular target: T1, Muscarinic acetylcholine receptor M2 (Homo sapiens) (UniProt P08172); settings: Compound concentration 10.0 uM
T1 sequence (whole entry): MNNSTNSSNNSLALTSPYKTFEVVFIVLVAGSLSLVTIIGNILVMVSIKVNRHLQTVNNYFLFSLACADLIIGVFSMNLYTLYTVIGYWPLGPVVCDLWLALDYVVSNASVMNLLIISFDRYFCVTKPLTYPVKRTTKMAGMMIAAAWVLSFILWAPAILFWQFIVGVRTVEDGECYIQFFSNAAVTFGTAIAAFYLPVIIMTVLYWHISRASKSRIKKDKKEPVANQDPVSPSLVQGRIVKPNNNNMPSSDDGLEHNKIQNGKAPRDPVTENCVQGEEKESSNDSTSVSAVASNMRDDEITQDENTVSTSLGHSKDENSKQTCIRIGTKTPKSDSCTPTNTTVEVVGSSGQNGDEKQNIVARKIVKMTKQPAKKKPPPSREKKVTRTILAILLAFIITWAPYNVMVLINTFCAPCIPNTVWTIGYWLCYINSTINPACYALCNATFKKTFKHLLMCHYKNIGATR

[27] = system: Epidermal growth factor receptor (Homo sapiens), P00533 [L858R,T790M]; settings: Compound concentration 1000.0 nM
[28] = molecular target: Serine/threonine-protein kinase haspin (Homo sapiens) (UniProt Q8TF76); settings: Compound concentration 1000.0 nM
[29] = molecular target: Serine/threonine-protein kinase Nek10 (Homo sapiens) (UniProt Q6ZWH5); settings: Compound concentration 1000.0 nM
[30] = system: Epidermal growth factor receptor (Homo sapiens), P00533 [UNDEFINED MUTATION]; settings: Compound concentration 1000.0 nM; remark: listed apart in the source
[31] = molecular target: Ephrin type-B receptor 2 (Homo sapiens) (UniProt P29323); settings: Compound concentration 1000.0 nM
[32] = molecular target: Myosin light chain kinase, smooth muscle (Homo sapiens) (UniProt Q15746); settings: Compound concentration 1000.0 nM
[33] = system: Tyrosine-protein kinase ABL1 (Homo sapiens), P00519 [T315I]; settings: Compound concentration 1000.0 nM
[34] = system: Phosphatidylinositol 4,5-bisphosphate 3-kinase catalytic subunit alpha isoform (Homo sapiens), P42336 [H1047Y]; settings: Compound concentration 1000.0 nM
[35] = molecular target: Serine/threonine-protein kinase N1 (Homo sapiens) (UniProt Q16512); settings: Compound concentration 1000.0 nM
[36] = system: Mast/stem cell growth factor receptor Kit (Homo sapiens), P10721 [L576P]; settings: Compound concentration 1000.0 nM
[37] = system: Tyrosine-protein kinase ABL1 (Homo sapiens), P00519 [Q252H]; settings: Compound concentration 1000.0 nM
[38] = molecular target: Homeodomain-interacting protein kinase 3 (Homo sapiens) (UniProt Q9H422); settings: Compound concentration 1000.0 nM

Sequence of Interferon-induced, double-stranded RNA-activated protein kinase (Homo sapiens) (P19525 whole entry): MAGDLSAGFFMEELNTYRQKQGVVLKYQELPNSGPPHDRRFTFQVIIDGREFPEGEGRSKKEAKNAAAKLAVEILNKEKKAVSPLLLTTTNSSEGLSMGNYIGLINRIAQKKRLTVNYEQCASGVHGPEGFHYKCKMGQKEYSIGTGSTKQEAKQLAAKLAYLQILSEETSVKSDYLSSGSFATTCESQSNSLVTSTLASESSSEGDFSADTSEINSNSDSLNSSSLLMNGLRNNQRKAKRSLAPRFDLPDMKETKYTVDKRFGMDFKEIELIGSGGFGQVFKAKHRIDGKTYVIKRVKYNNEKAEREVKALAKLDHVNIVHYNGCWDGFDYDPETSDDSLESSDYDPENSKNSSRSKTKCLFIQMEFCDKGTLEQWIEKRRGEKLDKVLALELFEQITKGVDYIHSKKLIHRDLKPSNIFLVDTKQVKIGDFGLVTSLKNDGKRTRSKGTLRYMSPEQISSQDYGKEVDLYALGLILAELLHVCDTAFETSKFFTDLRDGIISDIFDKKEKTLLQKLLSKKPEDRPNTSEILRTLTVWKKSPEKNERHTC
Sequence of Mitogen-activated protein kinase kinase kinase 13 (Homo sapiens) (O43283 whole entry): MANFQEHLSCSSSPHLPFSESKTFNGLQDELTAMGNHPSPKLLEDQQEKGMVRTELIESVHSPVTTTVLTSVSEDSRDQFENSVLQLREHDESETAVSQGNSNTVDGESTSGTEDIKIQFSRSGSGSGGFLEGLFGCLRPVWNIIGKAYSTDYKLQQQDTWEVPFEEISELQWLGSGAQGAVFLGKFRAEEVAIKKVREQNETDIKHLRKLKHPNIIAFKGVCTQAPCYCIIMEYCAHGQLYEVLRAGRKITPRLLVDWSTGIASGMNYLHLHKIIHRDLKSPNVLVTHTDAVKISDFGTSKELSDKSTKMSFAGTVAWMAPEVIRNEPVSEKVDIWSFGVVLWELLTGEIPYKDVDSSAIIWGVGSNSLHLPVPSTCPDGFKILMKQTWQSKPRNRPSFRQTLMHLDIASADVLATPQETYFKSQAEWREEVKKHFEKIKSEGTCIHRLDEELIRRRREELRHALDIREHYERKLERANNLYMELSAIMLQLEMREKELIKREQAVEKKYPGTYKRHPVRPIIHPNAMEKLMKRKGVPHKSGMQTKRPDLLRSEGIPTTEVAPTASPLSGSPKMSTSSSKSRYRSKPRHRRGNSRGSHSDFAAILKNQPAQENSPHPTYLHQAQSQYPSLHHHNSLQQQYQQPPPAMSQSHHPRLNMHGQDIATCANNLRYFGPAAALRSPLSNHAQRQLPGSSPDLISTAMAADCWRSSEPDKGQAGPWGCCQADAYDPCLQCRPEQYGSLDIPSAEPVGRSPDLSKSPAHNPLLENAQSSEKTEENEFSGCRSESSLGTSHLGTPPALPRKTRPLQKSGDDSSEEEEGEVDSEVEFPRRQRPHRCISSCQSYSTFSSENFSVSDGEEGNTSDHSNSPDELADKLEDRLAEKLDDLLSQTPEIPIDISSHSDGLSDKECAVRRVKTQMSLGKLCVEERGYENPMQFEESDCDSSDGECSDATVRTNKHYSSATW
Sequence of Serine/threonine-protein kinase haspin (Homo sapiens) (Q8TF76 whole entry): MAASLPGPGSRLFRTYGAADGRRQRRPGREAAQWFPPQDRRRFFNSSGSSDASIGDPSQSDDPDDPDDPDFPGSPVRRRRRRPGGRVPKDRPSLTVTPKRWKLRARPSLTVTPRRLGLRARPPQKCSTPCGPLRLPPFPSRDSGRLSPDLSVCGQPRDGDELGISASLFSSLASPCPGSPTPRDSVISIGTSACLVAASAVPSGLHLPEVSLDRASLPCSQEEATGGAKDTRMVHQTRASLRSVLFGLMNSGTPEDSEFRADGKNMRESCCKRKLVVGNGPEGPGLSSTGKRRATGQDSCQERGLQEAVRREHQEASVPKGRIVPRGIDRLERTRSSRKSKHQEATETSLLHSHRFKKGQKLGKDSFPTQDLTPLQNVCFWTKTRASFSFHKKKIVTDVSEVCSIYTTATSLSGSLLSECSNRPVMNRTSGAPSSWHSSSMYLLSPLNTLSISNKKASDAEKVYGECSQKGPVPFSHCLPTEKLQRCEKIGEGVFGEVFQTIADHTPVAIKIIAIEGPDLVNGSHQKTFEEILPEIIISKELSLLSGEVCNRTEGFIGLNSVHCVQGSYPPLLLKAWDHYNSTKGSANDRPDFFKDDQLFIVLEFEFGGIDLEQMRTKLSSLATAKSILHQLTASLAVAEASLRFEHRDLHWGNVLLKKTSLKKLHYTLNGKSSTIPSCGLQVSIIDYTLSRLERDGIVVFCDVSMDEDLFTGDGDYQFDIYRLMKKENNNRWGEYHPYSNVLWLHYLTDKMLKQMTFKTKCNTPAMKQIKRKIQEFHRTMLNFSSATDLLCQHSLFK
Sequence of Serine/threonine-protein kinase WNK2 (Homo sapiens) (Q9Y3S1 whole entry): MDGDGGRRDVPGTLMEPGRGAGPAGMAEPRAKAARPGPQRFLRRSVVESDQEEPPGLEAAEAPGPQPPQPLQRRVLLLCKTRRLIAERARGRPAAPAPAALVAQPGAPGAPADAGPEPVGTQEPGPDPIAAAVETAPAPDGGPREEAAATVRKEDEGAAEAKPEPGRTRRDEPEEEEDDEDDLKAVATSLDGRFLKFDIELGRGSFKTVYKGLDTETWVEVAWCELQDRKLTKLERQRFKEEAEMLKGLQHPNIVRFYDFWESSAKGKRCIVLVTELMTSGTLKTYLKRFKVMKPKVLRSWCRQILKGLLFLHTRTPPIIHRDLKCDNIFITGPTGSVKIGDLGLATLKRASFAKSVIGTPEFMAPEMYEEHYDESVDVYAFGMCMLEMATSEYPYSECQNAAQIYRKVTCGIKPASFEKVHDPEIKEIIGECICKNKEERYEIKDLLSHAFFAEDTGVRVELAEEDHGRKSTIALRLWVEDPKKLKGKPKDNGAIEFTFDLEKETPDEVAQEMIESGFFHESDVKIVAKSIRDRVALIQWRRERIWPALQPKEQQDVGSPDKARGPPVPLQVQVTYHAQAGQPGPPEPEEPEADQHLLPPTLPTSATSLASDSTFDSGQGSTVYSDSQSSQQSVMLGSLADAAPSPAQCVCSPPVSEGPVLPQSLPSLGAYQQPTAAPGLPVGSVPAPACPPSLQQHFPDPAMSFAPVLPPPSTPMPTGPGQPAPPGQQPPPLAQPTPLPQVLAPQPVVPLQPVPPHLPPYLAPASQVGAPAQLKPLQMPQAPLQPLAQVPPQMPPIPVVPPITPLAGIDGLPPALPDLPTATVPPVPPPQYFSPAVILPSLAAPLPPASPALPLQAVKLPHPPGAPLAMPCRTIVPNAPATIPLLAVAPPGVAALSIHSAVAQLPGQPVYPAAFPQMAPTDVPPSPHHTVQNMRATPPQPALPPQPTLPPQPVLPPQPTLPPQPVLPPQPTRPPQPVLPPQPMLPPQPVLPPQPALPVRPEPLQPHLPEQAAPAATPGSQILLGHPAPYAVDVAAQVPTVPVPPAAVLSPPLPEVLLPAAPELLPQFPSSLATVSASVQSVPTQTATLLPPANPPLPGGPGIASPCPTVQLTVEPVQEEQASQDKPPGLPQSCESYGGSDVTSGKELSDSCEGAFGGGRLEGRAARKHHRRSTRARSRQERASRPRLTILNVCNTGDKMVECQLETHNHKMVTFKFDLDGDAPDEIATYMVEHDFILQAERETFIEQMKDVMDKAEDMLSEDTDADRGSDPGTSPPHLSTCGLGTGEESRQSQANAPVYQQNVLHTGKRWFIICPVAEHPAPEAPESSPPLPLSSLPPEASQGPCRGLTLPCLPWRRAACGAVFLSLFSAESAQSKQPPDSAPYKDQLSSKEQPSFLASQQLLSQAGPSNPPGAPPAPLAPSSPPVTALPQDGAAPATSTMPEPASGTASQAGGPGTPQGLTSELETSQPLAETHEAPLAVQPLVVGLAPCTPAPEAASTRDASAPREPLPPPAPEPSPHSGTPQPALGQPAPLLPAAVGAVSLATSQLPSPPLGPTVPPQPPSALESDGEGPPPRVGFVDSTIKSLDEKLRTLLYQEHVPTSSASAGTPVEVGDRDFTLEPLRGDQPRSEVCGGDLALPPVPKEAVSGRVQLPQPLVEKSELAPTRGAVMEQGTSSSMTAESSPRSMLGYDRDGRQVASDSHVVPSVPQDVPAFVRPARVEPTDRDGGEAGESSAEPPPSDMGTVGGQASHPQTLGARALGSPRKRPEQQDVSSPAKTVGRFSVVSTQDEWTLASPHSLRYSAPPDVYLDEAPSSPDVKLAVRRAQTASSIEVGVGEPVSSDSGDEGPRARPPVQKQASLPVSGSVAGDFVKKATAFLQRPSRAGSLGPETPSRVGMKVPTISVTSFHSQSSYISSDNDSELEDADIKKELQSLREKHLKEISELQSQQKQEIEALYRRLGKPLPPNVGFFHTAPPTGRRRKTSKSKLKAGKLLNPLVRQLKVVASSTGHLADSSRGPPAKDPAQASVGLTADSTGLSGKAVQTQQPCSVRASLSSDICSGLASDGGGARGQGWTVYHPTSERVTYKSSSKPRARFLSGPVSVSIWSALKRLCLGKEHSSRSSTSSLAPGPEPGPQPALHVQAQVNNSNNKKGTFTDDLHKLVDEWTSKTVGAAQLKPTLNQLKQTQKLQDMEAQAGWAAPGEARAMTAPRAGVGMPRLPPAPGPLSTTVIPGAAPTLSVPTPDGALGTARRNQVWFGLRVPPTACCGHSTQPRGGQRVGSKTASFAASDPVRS
Sequence of Serine/threonine-protein kinase Nek7 (Homo sapiens) (Q8TDX7 whole entry, looked up): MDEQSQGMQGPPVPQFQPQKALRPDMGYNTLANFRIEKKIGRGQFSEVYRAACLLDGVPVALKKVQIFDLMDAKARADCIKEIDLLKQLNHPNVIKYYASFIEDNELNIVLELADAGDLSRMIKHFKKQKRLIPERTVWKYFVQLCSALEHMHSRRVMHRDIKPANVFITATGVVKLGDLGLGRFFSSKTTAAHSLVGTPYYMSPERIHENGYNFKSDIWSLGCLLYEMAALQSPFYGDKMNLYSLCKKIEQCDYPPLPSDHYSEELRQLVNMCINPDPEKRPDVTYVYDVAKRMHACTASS

SMILES | residual activity [1] [%] | residual activity [2] [%] | residual activity [3] [%] | inhibition [4] [%] | residual activity [5] [%] | residual activity [6] [%] | residual activity [7] [%] | residual activity [8] [%] | residual activity [9] [%] | residual activity [10] [%] | residual activity [11] [%] | residual activity [12] [%] | residual activity [13] [%] | residual activity [14] [%] | inhibition [15] [%] | residual activity [16] [%] | residual activity [17] [%] | residual activity [18] [%] | residual activity [19] [%] | residual activity [20] [%] | further results
CCCCN(CCCC)C(=O)CN1C[C@@H](c2cc(OC)c3c(c2)OCO3)[C@H](C(=O)O)[C@H]1CC(C)(C)CCC [A-545] | 91 | 77.3 | 100 | 76 | 79 | 100 | 100 | 100 | 100 | 87.8 | 100 | 80.2 | 81.3 | 97.4 | 41.1 | 100 | 89.9 | 87.9 | 92.6 | 87.4 | residual activity [21]: 100%; residual activity [22]: 100%; residual activity [23]: 99.3%; residual activity [24]: 86.6%; inhibition [25]: 93.6%; inhibition [26]: 3.71%; residual activity [27]: 100%; residual activity [28]: 100%; residual activity [29]: 100%; residual activity [30]: 100%; residual activity [31]: 73%; residual activity [32]: 84.4%; residual activity [33]: 100%; residual activity [34]: 92.6%; residual activity [35]: 85%; residual activity [36]: 100%; residual activity [37]: 94.6%; residual activity [38]: 100%
CCCCN(CCCC)C(=O)CN1C[C@H](c2cc(OC)c3c(c2)OCO3)[C@@H](C(=O)O)[C@@H]1CC(C)(C)CCC [ABT-546] | 70 | 100 | 100 | -9.89 | 98 | 89.3 | 100 | 73.5 | 96.1 | 100 | 100 | 0 | 100 | 46.4 | 25.6 | 85 | 72.1 | 100 | 100 | 100 | residual activity [21]: 100%; residual activity [22]: 100%; residual activity [23]: 60.2%; residual activity [24]: 100%; inhibition [25]: 29.6%; inhibition [26]: -1.89%; residual activity [27]: 60.6%; residual activity [28]: 75.8%; residual activity [29]: 57.4%; residual activity [30]: 95.6%; residual activity [31]: 100%; residual activity [32]: 100%; residual activity [33]: 100%; residual activity [34]: 100%; residual activity [35]: 100%; residual activity [36]: 100%; residual activity [37]: 97.7%; residual activity [38]: 100%
